# PubChem BioAssay (NCI)
#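 Compound exposure: 48 hours, 5 concentrations, 96-well plates. TGI marks complete inhibition of growth.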
# Legend:
# Test in all cases: NCI-60 cell line screen, 48 h
# BT-549 breast = system: BT-549 breast
# DU-145 prostate = system: DU-145 prostate
# HCT-15 colon = system: HCT-15 colon
# HS 578T breast = system: HS 578T breast
# KM12 colon = system: KM12 colon
# MCF7 breast = system: MCF7 breast
# MDA-MB-231 breast = system: MDA-MB-231 breast
# MDA-N = system: MDA-N
# MOLT-4 leukemia = system: MOLT-4 leukemia
# OVCAR-3 ovarian = system: OVCAR-3 ovarian
# OVCAR-4 ovarian = system: OVCAR-4 ovarian
# PC-3 prostate = system: PC-3 prostate
# SR leukemia = system: SR leukemia
# T-47D breast = system: T-47D breast
# DMS 114 small cell lung = system: DMS 114 small cell lung
# KM20L2 colon = system: KM20L2 colon
# MALME-3M melanoma = system: MALME-3M melanoma
# SK-OV-3 ovarian = system: SK-OV-3 ovarian
# SNB-78 CNS = system: SNB-78 CNS
# LXFL 529 NSCLC = system: LXFL 529 NSCLC
Structure (SMILES),TGI (BT-549 breast),TGI (DU-145 prostate),TGI (HCT-15 colon),TGI (HS 578T breast),TGI (KM12 colon),TGI (MCF7 breast),TGI (MDA-MB-231 breast),TGI (MDA-N),TGI (MOLT-4 leukemia),TGI (OVCAR-3 ovarian),TGI (OVCAR-4 ovarian),TGI (PC-3 prostate),TGI (SR leukemia),TGI (T-47D breast),TGI (DMS 114 small cell lung),TGI (KM20L2 colon),TGI (MALME-3M melanoma),TGI (SK-OV-3 ovarian),TGI (SNB-78 CNS),TGI (LXFL 529 NSCLC)
CCOC(=O)NC(Nc1ncccn1)(C(=O)OCC)C(F)(F)F (centres undefined),> 100 µM,> 100 µM,> 100 µM,> 100 µM,> 100 µM,> 100 µM,> 100 µM,> 100 µM,> 100 µM,> 100 µM,> 100 µM,> 100 µM,> 100 µM,> 100 µM,–,–,–,–,–,–
CSc1nc(NC2OCC(O)C(O)C2O)c(N)c(=O)[nH]1 (centres undefined),–,–,> 100 µM,–,> 100 µM,> 100 µM,–,–,> 100 µM,> 100 µM,> 100 µM,–,–,–,> 100 µM,> 100 µM,> 100 µM,> 100 µM,> 100 µM,–
Cc1ccc2c(c1)C(=O)N(N(C)C)CC(=O)N2,–,–,> 100 µM,–,> 100 µM,–,–,–,> 100 µM,> 100 µM,> 100 µM,–,> 100 µM,–,> 100 µM,–,> 100 µM,> 100 µM,> 100 µM,> 100 µM
Cc1cc(C)n(-c2nsc3ccccc23)n1,–,–,> 100 µM,–,> 100 µM,–,–,–,> 100 µM,> 100 µM,> 100 µM,–,> 100 µM,–,> 100 µM,> 100 µM,–,–,> 100 µM,> 100 µM
CC(C)(C)[Si](C)(C)OCC1OC(n2cnc3c(N)ncnc32)CC1O (centres undefined),> 100 µM,> 100 µM,> 100 µM,> 100 µM,> 100 µM,> 100 µM,> 100 µM,> 100 µM,> 100 µM,> 100 µM,> 100 µM,> 100 µM,> 100 µM,> 100 µM,–,–,> 100 µM,> 100 µM,–,–
N#CN=[N+]([O-])c1ccc(C(=O)O)cc1,31.4 µM,–,34.1 µM,61.3 µM,> 100 µM,38.8 µM,–,–,–,29.7 µM,35.8 µM,31.2 µM,–,–,–,–,–,33 µM,–,–
C/C(N=NS(=O)(=O)c1ccccc1)=C1\C=CC=CN1O,–,–,> 100 µM,–,> 100 µM,–,–,–,> 100 µM,> 100 µM,> 100 µM,–,> 100 µM,–,> 100 µM,> 100 µM,–,> 100 µM,> 100 µM,> 100 µM
CC1CCC2(O)C3(C)CC4(O)OC2(C1O)C1(O)C3(O)C(OC(=O)c2ccc[nH]2)C(O)(C(C)C)C41C (centres undefined),> 100 µM,> 100 µM,> 100 µM,> 100 µM,> 100 µM,> 100 µM,> 100 µM,> 100 µM,> 100 µM,> 100 µM,> 100 µM,> 100 µM,–,> 100 µM,–,–,> 100 µM,> 100 µM,–,–
COc1ccc2nc3cc(Cl)ccc3c(NCCNC(=O)Cn3c(=O)n(C)c(=O)c4c3nc3c(c(=O)n(C)c(=O)n3C)[n+]4[O-])c2c1,49.1 µM,> 100 µM,> 100 µM,71.2 µM,> 100 µM,> 100 µM,> 100 µM,> 100 µM,> 90.8 µM,> 100 µM,> 100 µM,> 100 µM,63.8 µM,> 100 µM,–,–,> 100 µM,> 100 µM,–,–
OCCOCCN1CCN(CCCN2c3ccccc3Sc3ccc(C(F)(F)F)cc32)CC1,35.4 µM,27.6 µM,38.3 µM,38.9 µM,20.2 µM,28.3 µM,24 µM,26.1 µM,29.8 µM,33 µM,30.2 µM,29.6 µM,–,2.48 µM,–,–,–,33.7 µM,–,–
O=C1Nc2ccccc2C1=Nc1cccc2ncccc12,> 100 µM,> 100 µM,> 100 µM,> 100 µM,> 100 µM,> 100 µM,> 100 µM,> 100 µM,> 100 µM,> 100 µM,> 100 µM,> 100 µM,> 100 µM,> 100 µM,–,–,> 100 µM,99.7 µM,–,–
O=C1NC2=C(CCCC/C2=N\O)C12CCCCC2,–,–,> 100 µM,–,> 100 µM,–,–,–,> 100 µM,> 100 µM,> 100 µM,–,> 100 µM,–,> 100 µM,> 100 µM,> 100 µM,> 100 µM,> 100 µM,> 100 µM
NCCCOc1ccc([N+](=O)[O-])cc1Cl,–,–,> 100 µM,–,> 100 µM,–,–,–,> 100 µM,> 100 µM,> 100 µM,–,> 100 µM,–,> 100 µM,> 100 µM,> 100 µM,–,–,> 100 µM
c1coc(CNc2ncnc3[nH]ncc23)c1,–,–,> 100 µM,–,> 100 µM,–,–,–,> 100 µM,> 100 µM,> 100 µM,–,> 100 µM,–,> 100 µM,> 100 µM,> 100 µM,> 100 µM,> 100 µM,> 100 µM
CC(=O)c1ccc2c(c1)c1c(C)c3c[n+](C)ccc3c(C)c1n2C,–,–,> 100 µM,–,> 100 µM,> 29 µM,–,–,20.8 µM,> 65.6 µM,54.4 µM,–,–,–,25.6 µM,> 100 µM,33.7 µM,> 87 µM,35.3 µM,–
CCN(CC)CCNc1ccc2nnn3c4ccc(C)cc4c(=O)c1c23,–,–,22.4 µM,–,16.9 µM,–,–,–,12.2 µM,29.9 µM,25.2 µM,–,13.1 µM,–,21.3 µM,19.3 µM,25.7 µM,25.8 µM,26.1 µM,24.5 µM
Brc1ccc(C2CC(c3cccc4ccccc34)=Nc3ccccc3S2)cc1 (centres undefined),–,–,> 100 µM,–,> 100 µM,–,–,–,> 100 µM,–,> 100 µM,–,> 100 µM,–,–,> 100 µM,–,> 100 µM,> 100 µM,> 100 µM
